Patent publication US20210087206A1, “MACROCYCLIC KINASE INHIBITORS AND THEIR USE” (TURNING POINT THERAPEUTICS, INC., priority 2017, published 2021)

Columns and labels:
Test in all cases: Cell proliferation assay (CellTiter-Glo)
Type in all cases: cell-based
[1] = biological target: T1, BaF3 EML4-ALK (Homo sapiens, UniProt Q9UM73); conditions: anti-cell proliferation, 72 hours
T1 construct: The EML4-ALK gene (variant 1) was synthesized at GenScript and cloned into pCDH-CMV-MCS-EF1-Puro plasmid (System Biosciences, Inc); fused on or other part: EML4 N-terminal part (variant 1: exons 1-13, with the coiled-coil that oligomerises the fusion) fused to the intracellular part of ALK, which contains the kinase domain; Q9HC35 (Echinoderm microtubule-associated protein-like 4)
T1 sequence (Q9UM73 whole entry, stated change not applied, the tested form may be a part): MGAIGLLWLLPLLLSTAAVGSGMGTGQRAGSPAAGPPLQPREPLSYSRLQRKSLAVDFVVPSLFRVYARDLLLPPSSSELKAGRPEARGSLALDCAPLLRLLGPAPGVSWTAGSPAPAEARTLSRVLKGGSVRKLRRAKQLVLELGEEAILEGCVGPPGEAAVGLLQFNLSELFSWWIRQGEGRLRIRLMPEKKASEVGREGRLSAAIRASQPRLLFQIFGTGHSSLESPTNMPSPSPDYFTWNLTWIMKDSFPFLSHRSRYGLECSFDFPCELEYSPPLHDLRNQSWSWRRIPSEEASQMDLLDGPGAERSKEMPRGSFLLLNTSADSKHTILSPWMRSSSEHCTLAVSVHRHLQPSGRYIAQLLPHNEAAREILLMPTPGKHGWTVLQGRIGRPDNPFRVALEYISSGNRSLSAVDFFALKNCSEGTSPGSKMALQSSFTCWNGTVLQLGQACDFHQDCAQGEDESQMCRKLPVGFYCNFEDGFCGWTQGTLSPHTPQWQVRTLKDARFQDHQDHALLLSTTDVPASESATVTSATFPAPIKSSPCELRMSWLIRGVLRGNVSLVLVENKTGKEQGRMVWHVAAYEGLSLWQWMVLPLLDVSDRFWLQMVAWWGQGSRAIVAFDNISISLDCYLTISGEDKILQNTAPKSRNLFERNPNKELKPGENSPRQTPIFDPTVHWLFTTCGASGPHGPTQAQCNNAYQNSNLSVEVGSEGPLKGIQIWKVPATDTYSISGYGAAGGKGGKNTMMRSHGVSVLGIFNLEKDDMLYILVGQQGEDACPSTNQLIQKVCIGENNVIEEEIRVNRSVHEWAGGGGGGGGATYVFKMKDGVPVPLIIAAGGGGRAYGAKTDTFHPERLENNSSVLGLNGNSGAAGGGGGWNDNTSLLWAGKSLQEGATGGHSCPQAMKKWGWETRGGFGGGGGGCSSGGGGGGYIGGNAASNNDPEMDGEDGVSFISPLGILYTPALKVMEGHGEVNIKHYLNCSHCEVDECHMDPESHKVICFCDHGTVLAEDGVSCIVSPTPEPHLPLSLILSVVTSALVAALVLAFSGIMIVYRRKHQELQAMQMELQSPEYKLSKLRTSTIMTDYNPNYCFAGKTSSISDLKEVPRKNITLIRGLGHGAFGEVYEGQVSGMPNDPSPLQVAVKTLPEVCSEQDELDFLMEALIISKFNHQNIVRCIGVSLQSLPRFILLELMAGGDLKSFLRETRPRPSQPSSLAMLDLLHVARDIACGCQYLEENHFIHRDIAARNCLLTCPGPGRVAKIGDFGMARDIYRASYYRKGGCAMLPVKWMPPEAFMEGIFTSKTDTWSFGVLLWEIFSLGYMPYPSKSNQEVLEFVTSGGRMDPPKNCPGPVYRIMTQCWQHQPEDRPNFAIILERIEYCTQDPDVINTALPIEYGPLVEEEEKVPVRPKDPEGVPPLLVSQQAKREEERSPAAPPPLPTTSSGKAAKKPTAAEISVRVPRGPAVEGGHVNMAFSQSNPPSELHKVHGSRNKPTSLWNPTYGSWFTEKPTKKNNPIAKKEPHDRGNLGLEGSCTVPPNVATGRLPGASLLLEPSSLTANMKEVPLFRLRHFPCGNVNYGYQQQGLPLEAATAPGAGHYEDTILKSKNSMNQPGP
Description: Cloning and Ba/F3 or NIH3T3 Stable Cell Line Creation
The EML4-ALK gene (variant 1) was synthesized at GenScript and cloned into pCDH-CMV-MCS-EF1-Puro plasmid (System Biosciences, Inc). Ba/F3-EML4-ALK wild type were generated by transducing Ba/F3 cells with lentivirus containing EML4-ALK wide type. Stable cell lines were selected by puromycin treatment, followed by IL-3 withdrawal. Briefly, 5×10^6 Ba/F3 cells were transduced with lentivirus supernatant in the presence of 8 μg/mL protamine sulfate. The transduced cells were subsequently selected with 1 μg/mL puromycin in the presence of IL3-containing medium RPMI1640, plus 10% FBS. After 10-12 days of selection, the surviving cells were further selected for IL3 independent growth.
(§1) Cell Proliferation Assays:
(§2) Two thousand cells per well were seeded in 384 well white plate for 24 hrs, and then treated with compounds for 72 hours (37° C., 5% CO2). Cell proliferation was measured using CellTiter-Glo luciferase-based ATP detection assay (Promega) following the manufactures's protocol. IC50 determinations were performed using GraphPad Prism software (GraphPad, Inc., San Diego, Calif.).

[2] = test system: KM12 (TPM3-TRKA); conditions: Homo sapiens, anti-cell proliferation, 72 hours
Description: (§3) Cell Lines and Cell Culture:
(§4) Colorectal cell line KM 12 (harboring endogenous TPM3-TRKA fusion gene) was obtained from NCI. Acute myelogenous cell line KG-1 (harboring endogenous OP2-FGFR1 fusion gene) were purchased from ATCC.
as §1, §2

[3] = test system: KG-1 cell (OP2-FGFR1); conditions: Homo sapiens, anti-cell proliferation, 72 hours
Description: as §3, §4, §1, §2

IC50 [1]	SMILES	IC50 [2]	IC50 [3]
> 10000 nM	C[C@H]1COc2cn3ncc4c3nc2N1Cc1cc(F)ccc1OCCNC4=O [Compound 2, (4S)-8-fluoro-4-methyl-3,4,13,14-tetrahydro-6H-18,1-(metheno)[1,4]oxazino[3,4-i]pyrazolo[4,3-f][1,4,8,10]benzoxatriazacyclotridecin-15(12H)-one]	26.7 nM	> 10000 nM
94.2 nM	C[C@@H]1COc2cn3ncc4c3nc2N1Cc1cc(F)ccc1OCCNC4=O [Compound 3, (4R,12S)-8-fluoro-4,12-dimethyl-3,4,13,14-tetrahydro-6H-18,1-(metheno)[1,4]oxazino[3,4-i]-pyrazolo[4,3-f][1,4,8,10]benzo-xatriazacyclotridecin-15(12H)-one]	0.2 nM	271 nM
> 10000 nM	C[C@H]1CNC(=O)c2cnn3cc4c(nc23)N(Cc2cc(F)ccc2O1)[C@@H](C)CO4 [Compound 4, (4S,12S)-8-fluoro-4,12-dimethyl-3,4,13,14-tetrahydro-6H-18,1-(metheno)[1,4]oxazino[3,4-i]pyrazolo[4,3-f][1,4,8,10]benzoxatriazacyclotridecin-15(12H)-one]	0.2 nM	> 10000 nM
37.7 nM	C[C@@H]1COc2cn3ncc4c3nc2N1Cc1cc(F)ccc1O[C@@H](C)CNC4=O [Compound 5, (4R,12S)-8-fluoro-4,12-dimethyl-3,4,13,14-tetrahydro-6H-18,1-(metheno)[1,4]oxazino[3,4-i]-pyrazolo[4,3-f][1,4,8,10]benzo-xatriazacyclotridecin-15(12H)-one]	0.2 nM	194 nM
20.6 nM	CC[C@@H]1COc2cn3ncc4c3nc2N1Cc1cc(F)ccc1O[C@@H](C)CNC4=O [Compound 6, (4R,12S)-4-ethyl-8-fluoro-12-methyl-3,4,13,14-tetrahydro-6H-18,1-(metheno)[1,4]oxazino[3,4-i]pyrazolo[4,3-f][1,4,8,10]benzo-xatriazacyclotridecin-15(12H)-one]	0.2 nM	234 nM
101 nM	C[C@@H]1COc2cn3ncc4c3nc2N1Cc1cc(F)cnc1O[C@@H](C)CNC4=O [Compound 8, (4R,12S)-8-fluoro-4,12-dimethyl-3,4,13,14-tetrahydro-6H-18,1-(metheno)[1,4]oxazino[3,4-i]pyrazolo[4,3-f]pyrido[3,2-l][1,4,8,10]oxatriazacyclotridecin-15(12H)-one]	0.2 nM	77.5 nM
11.7 nM	C[C@@H]1COc2ccc(F)cc2CN2c3nc4c(cnn4cc3OC[C@H]2C)C(=O)N1 [Compound 9, (4R,13R)-8-fluoro-4,13-dimethyl-3,4,13,14-tetrahydro-6H-18,1-(metheno)[1,4]oxazino[3,4-i]-pyrazolo[4,3-f][1,4,8,10]benzo-xatriazacyclotridecin-15(12H)-one]	0.2 nM	111 nM
71.2 nM	CC[C@@H]1COc2cn3ncc4c3nc2N1Cc1cc(F)cnc1O[C@@H](C)CNC4=O [Compound 10, (4R,12S)-4-ethyl-8-fluoro-12-methyl-3,4,13,14-tetrahydro-6H-18,1-(metheno)[1,4]oxazino[3,4-i]pyrazolo[4,3-f]pyrido[3,2-l] [1,4,8,10]oxatriazacyclotridecin-15(12H)-one]	0.2 nM	63.1 nM
3170 nM	C[C@H]1CNC(=O)c2cnn3cc4c(nc23)N(Cc2cc(F)ccc2O1)[C@H](COCc1ccccc1)CO4 [Compound 11, (4R,12S)-4-[(benzyloxy)methyl)-8-fluoro-12-methyl-3,4,13,14-tetrahydro-6H-18,1-(metheno)-[1,4]oxazino[3,4-i]pyrazolo[4,3-f][1,4,8,10]benzoxatriazacyclo-tridecin-15(12H)-one]	91.1 nM	4000 nM
1460 nM	C[C@H]1CNC(=O)c2cnn3cc4c(nc23)N(Cc2cc(F)ccc2O1)[C@H](CO)CO4 [Compound 12, (4R,12S)-8-fluoro-4-(hydroxymethyl)-12-methyl-3,4,13,14-tetrahydro-6H-18,1-(metheno)[1,4]oxazino[3,4-i]pyrazolo[4,3-f][1,4,8,10]benzoxatriazacyclotridecin-15(12H)-one]	0.8 nM	2000 nM
28 nM	CC[C@@H]1COc2cn3ncc4c3nc2N1Cc1cc(F)ccc1OC[C@@H](C)NC4=O [Compound 13, (4R,13R)-4-ethyl-8-fluoro-13-methyl-3,4,13,14-tetrahydro-6H-18,1-(metheno)[1,4]oxazino[3,4-i]pyrazolo[4,3-f][1,4,8,10]benzo-xatriazacyclotridecin-15(12H)-one]	0.2 nM	145 nM

More lines, now with the values behind:

SMILES	IC50 [1]	IC50 [2]	IC50 [3]
C[C@H]1CNC(=O)c2cnn3cc4c(nc23)N(CCO4)Cc2c(ccc(F)c2Cl)O1 [Compound 1, (12S)-7-chloro-8-fluoro-12-methyl-3,4,13,14-tetrahydro-6H-18,1-(metheno)[1,4]oxazino[3,4-i]pyrazolo[4,3-f][1,4,8,10]benzoxatriazacyclotridecin-15(12H)-one]	969 nM	0.2 nM	1330 nM
CC[C@@H]1COc2ncc(F)cc2CN2c3nc4c(cnn4cc3OC[C@H]2C)C(=O)N1 [Compound 24, (4R,13R)-13-ethyl-8-fluoro-4-methyl-3,4,13,14-tetrahydro-6H-18,1-(metheno)[1,4]oxazino[3,4-i]pyrazolo[4,3-f]pyrido[3,2-l] [1,4,8,10]oxatriazacyclotridecin-15(12H)-one]	104 nM	–	50 nM
C[C@H]1CNC(=O)c2cnn3cc4c(nc23)N(Cc2cc(F)cnc2O1)C(C)(C)CO4 [Compound 37, (12S)-8-fluoro-4,4,12-trimethyl-3,4,13,14-tetrahydro-6H-18,1-(metheno)[1,4]oxazino[3,4-i]-pyrazolo[4,3-f]pyrido[3,2-l] [1,4,8,10]oxatriazacyclotridecin-15(12H)-one]	1550 nM	–	5000 nM
C[C@H]1CNC(=O)c2cnn3cc4c(nc23)N(Cc2cc(F)cnc2O1)[C@H](Cc1ccccc1)CO4 [Compound 38, (4R,12S)-4-benzyl-8-fluoro-12-methyl-3,4,13,14-tetrahydro-6H-18,1-(metheno)[1,4]oxazino[3,4-i]pyrazolo[4,3-f]pyrido[3,2-l] [1,4,8,10]oxatriazacyclotridecin-15(12H)-one]	7240 nM	–	357 nM
C[C@@H]1COc2ncc(F)cc2CN2c3nc4c(cnn4cc3OC[C@H]2Cc2ccccc2)C(=O)N1 [Compound 39, (4R,13R)-4-benzyl-8-fluoro-13-methyl-3,4,13,14-tetrahydro-6H-18,1-(metheno)[1,4]oxazino[3,4-i]pyrazolo[4,3-f]pyrido[3,2-l] [1,4,8,10]oxatriazacyclotridecin-15(12H)-one]	1610 nM	–	73.7 nM
C[C@H]1CNC(=O)c2cnn3cc4c(nc23)N(Cc2cc(F)cnc2O1)C[C@H](O)CO4 [Compound 62, (4S,13S)-9-fluoro-4-hydroxy-13-methyl-4,5,14,15-tetrahydro-3H,7H-19,1-(metheno)[1,4]-oxazepino[3,4-i]pyrazolo[4,3-f]-pyrido[3,2-l][1,4,8,10]oxatria-cyclotridecin-16(13H)-one]	–	94.8 nM	681 nM
C[C@@H]1COc2ncc(F)cc2CN2c3nc4c(cnn4cc3OC[C@H]2C#N)C(=O)N1 [Compound 66, (4R,13R)-8-fluoro-13-methyl-15-oxo-3,4,12,13,14,15-hexahydro-6H-18,1-(metheno)[1,4]oxazino[3,4-i]pyrazolo[4,3-f]pyrido[3,2-1][1,4,8,10]oxatriazacyclotridecine-4-carbonitrile]	–	463 nM	10000 nM
C[C@@H]1COc2cn3ncc4c3nc2N1Cc1cc(F)cnc1OCC(O)(O)CNC4=O [Compound 81, (16R)-12-fluoro-7,7-dihydroxy-16-methyl-5,6,7,8,16,17-hexahydro-4H,14H-1,19-(metheno)[1,4]oxazino[4,3-e]pyrazolo[3,4-h]pyrido[2,3-b][1,5,7,11]oxatriazacyclotetradecin-4-one]	–	< 0.2 nM	166 nM
C[C@H]1CNC(=O)c2cnn3cc4c(nc23)N(Cc2cc(F)cnc2O1)C[C@@H](O)CO4 [Compound 90, (4R,13S)-9-fluoro-4-hydroxy-13-methyl-4,5,14,15-tetrahydro-3H,7H-19,1-(metheno)[1,4]-oxazepino[3,4-i]pyrazolo[4,3-f]pyrido[3,2-l][1,4,8,10]oxatriaza-cyclotridecin-16(13H)-one]	–	< 0.2 nM	359 nM
C[C@@H]1COc2ncc(F)cc2CN2C[C@@H](F)COc3cn4ncc(c4nc32)C(=O)N1 [Compound 94, (4R,14R)-4,9-difluoro-14-methyl-4,5,14,15-tetrahydro-3H,7H-19,1-(metheno)[1,4]oxazepino[3,4-i]pyrazolo[4,3-f]pyrido[3,2-l] [1,4,8,10]oxatriazacyclotridecin-16(13H)-one]	–	40.3 nM	6110 nM
